VDR affinity, Transcriptional activity and ED50 data for eleven compounds are collected here from ChEMBL document CHEMBL1142015, “New derivatives of 1alpha,25-dihydroxy-19-norvitamin D3 with two substituents at C-2: synthesis and biological activity” (Bioorg Med Chem Lett, 2005).

Several values for one entry are separate records, joined by “and”; a condition that tells them apart may be missing. Identical values can stand only once.

The target in assay [1] is T1, Vitamin D3 receptor (Bos taurus) (UniProt Q28037).
T1 sequence (whole entry): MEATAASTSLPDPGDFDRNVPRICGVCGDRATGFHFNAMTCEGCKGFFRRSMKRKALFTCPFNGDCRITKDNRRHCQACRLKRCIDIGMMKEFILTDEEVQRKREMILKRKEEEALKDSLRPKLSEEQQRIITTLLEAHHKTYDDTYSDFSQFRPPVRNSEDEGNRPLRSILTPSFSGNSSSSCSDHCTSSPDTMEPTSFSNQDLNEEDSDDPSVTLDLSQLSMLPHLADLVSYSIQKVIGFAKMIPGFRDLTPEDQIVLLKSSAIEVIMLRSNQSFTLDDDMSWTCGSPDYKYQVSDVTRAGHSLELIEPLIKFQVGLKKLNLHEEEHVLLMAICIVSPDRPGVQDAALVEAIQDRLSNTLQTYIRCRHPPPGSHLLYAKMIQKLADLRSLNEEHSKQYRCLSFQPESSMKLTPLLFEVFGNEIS
Kind of assay: Percent binding affinity for bovine vitamin D receptor compared to 1a.

The target of assay [2] is T1, Vitamin D3 receptor (Bos taurus). As to the kind of experiment: Percent binding affinity for bovine vitamin D receptor compared to 2-Et-1-alpha,2,5-dihydroxy-19-norvitamin D3.
Assay [3] deals with T2, Vitamin D3 receptor (Homo sapiens) (UniProt P11473).
T2 sequence (whole entry): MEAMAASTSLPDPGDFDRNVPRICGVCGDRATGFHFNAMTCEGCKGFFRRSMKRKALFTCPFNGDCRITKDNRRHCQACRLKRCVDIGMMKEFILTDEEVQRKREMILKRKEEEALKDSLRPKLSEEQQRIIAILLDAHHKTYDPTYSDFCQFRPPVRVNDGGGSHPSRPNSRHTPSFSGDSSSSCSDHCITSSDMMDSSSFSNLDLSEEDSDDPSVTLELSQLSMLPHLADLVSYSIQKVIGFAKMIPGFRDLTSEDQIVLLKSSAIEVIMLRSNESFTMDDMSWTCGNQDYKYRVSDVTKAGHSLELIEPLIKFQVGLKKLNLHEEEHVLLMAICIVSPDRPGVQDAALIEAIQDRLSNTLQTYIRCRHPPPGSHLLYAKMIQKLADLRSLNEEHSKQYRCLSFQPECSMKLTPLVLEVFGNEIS
Kind of assay: Percent activation of vitamin D receptor in COS-7 cell transcription assay at 10e-8 or 10e-9 M. In kind it is functional, cell-based.

Assay [4] concerns the target T2, Vitamin D3 receptor (Homo sapiens). Kind of assay: Activation of vitamin D receptor in COS-7 cell transcription assay. The class given is functional, cell-based.
The target of assay [5] is T1, Vitamin D3 receptor (Bos taurus). As to the kind of experiment: Percent binding affinity for bovine vitamin D receptor compared to 2-Me-1-alpha,2,5-dihydroxy-19-norvitamin D3.

For the compound `CCC1(O)[C@H](O)CC(=C/C=C2/CCC[C@]3(C)[C@@H]([C@@H](C)CCCC(C)(C)O)CC[C@@H]23)C[C@H]1O` (stereo partly specified), the VDR affinity worked out at 5% in assay [1] and 200% in assay [2]. This compound came in with a Transcriptional activity in assay [3] of 92%.
As to `C[C@H](CCCC(C)(C)O)[C@H]1CC[C@H]2/C(=C\C=C3C[C@@H](O)C4(CO4)[C@H](O)C3)CCC[C@]12C` (stereo partly specified), the VDR affinity in assay [1] is 4% and 3%. The ED50 in assay [4] is 5 nM and 4 nM.
Regarding `C[C@@H](CCCC(C)(C)O)[C@H]1CC[C@H]2/C(=C\C=C3C[C@@H](O)C(O)(CF)[C@H](O)C3)CCC[C@]12C` (stereo partly specified), the VDR affinity in assay [1] stood at 60%.
Still for that read-out and setting: the value for `C[C@H](CCCC(C)(C)O)[C@H]1CC[C@H]2/C(=C\C=C3C[C@@H](O)C(O)(CF)[C@H](O)C3)CCC[C@]12C` (stereo partly specified) was 2% and 0.02%.
For the compound `C[C@@H](CCCC(C)(C)O)[C@H]1CC[C@H]2/C(=C\C=C3C[C@@H](O)C4(CO4)[C@H](O)C3)CCC[C@]12C` (stereo partly specified), the ED50 in assay [4] is 89 nM and 18 nM.
As for `C[C@H](CCCC(C)(C)O)[C@H]1CC[C@H]2/C(=C\C=C3C[C@@H](O)C(C)(O)[C@H](O)C3)CCC[C@]12C` (stereo partly specified), the VDR affinity in assay [5] was 21% and 2.6%.
As for `COCC1(O)[C@H](O)CC(=C/C=C2/CCC[C@]3(C)[C@@H]([C@@H](C)CCCC(C)(C)O)CC[C@@H]23)C[C@H]1O` (stereo partly specified), the VDR affinity in assay [1] was 20% and 10%.
As for `CCC1(O)[C@H](O)CC(=C/C=C2/CCC[C@]3(C)[C@@H]([C@H](C)CCCC(C)(C)O)CC[C@@H]23)C[C@H]1O` (stereo partly specified), in assay [1], the VDR affinity was 2% and 0.05%.
For the compound `COCC1(O)[C@H](O)CC(=C/C=C2/CCC[C@]3(C)[C@@H]([C@H](C)CCCC(C)(C)O)CC[C@@H]23)C[C@H]1O` (stereo partly specified), the VDR affinity in assay [1] is 4% and 0.1%.
The same measure, in the same setting: the figure for `C=C1/C(=C\C=C2/CCC[C@]3(C)[C@@H]([C@H](C)CCCC(C)(C)O)CC[C@@H]23)C[C@@H](O)C[C@@H]1O` is 100%.
As for `C[C@@H](CCCC(C)(C)O)[C@H]1CC[C@H]2/C(=C\C=C3C[C@@H](O)C(C)(O)[C@H](O)C3)CCC[C@]12C` (stereo partly specified), the VDR affinity was 100% in assay [1]; 23% and 18% in assay [5]. Further, the ED50 in assay [4] is 3200 nM.
